Experimental data taken from the kinase profiling compilation of Christmann-Franck et al. (2016).
Values joined by “and” are separate entries in the source; they are usually repeats but may differ in a detail not shown here. Equal entries are not always repeated.

Columns and labels:
MAP4K1 (human) = MAP4K1 (human) (UniProt Q92918); test: KINOMEscan competition binding; settings: compound 1.0 µM
CAMK2B (human) = CAMK2B (human) (UniProt Q13554); test: KINOMEscan competition binding; settings: compound 1.0 µM
MAPK9 (human) = MAPK9 (human) (UniProt P45984); test: KINOMEscan competition binding; settings: compound 1.0 µM
CSF1R (human) = CSF1R (human) (UniProt P07333); test: KINOMEscan competition binding; settings: compound 1.0 µM
CAMK1G (human) = CAMK1G (human) (UniProt Q96NX5); test: KINOMEscan competition binding; settings: compound 1.0 µM
NEK1 (human) = NEK1 (human) (UniProt Q96PY6); test: KINOMEscan competition binding; settings: compound 1.0 µM
PLK1 (human) = PLK1 (human) (UniProt P53350); test: KINOMEscan competition binding; settings: compound 1.0 µM
SRPK3 (human) = SRPK3 (human) (UniProt Q9UPE1); test: KINOMEscan competition binding; settings: compound 1.0 µM
[1] = test system: ABL1 (human), P00519 [F317L]; test: KINOMEscan competition binding; settings: compound 1.0 µM
[2] = test system: EGFR (human), P00533 [A750P; 747-749 del]; test: KINOMEscan competition binding; settings: compound 1.0 µM
TAOK1 (human) = TAOK1 (human) (UniProt Q7L7X3); test: KINOMEscan competition binding; settings: compound 1.0 µM
[3] = test system: FLT3 (human), P36888 [D835H]; test: KINOMEscan competition binding; settings: compound 1.0 µM
PLK2 (human) = PLK2 (human) (UniProt Q9NYY3); test: SelectScreen, TR FRET; settings: compound 5.0 µM
MAPKAPK2 (human) = MAPKAPK2 (human) (UniProt P49137); test: SelectScreen, TR FRET; settings: compound 5.0 µM
SRC (human) = SRC (human) (UniProt P12931); test: SelectScreen, TR FRET; settings: compound 5.0 µM
RPS6KA2 KD1 KD2 (human) = RPS6KA2 KD1 KD2 (human) (UniProt Q15349); test: SelectScreen, TR FRET; settings: compound 5.0 µM
PRKG2 (human) = PRKG2 (human) (UniProt Q13237); test: SelectScreen, TR FRET; settings: compound 5.0 µM
FER (human) = FER (human) (UniProt P16591); test: SelectScreen, TR FRET; settings: compound 5.0 µM
RPS6KB1 (human) = RPS6KB1 (human) (UniProt P23443); test: SelectScreen, TR FRET; settings: compound 5.0 µM
TYRO3 (human) = TYRO3 (human) (UniProt Q06418); test: SelectScreen, TR FRET; settings: compound 5.0 µM
[4] = test system: LYN (human), P07948 [23-43 del]; test: SelectScreen, TR FRET; settings: compound 5.0 µM
PIM1 (human) = PIM1 (human) (UniProt P11309); test: SelectScreen, TR FRET; settings: compound 5.0 µM
FES (human) = FES (human) (UniProt P07332); test: SelectScreen, TR FRET; settings: compound 5.0 µM
PIM2 (human) = PIM2 (human) (UniProt Q9P1W9); test: SelectScreen, TR FRET; settings: compound 5.0 µM
ITK (human) = ITK (human) (UniProt Q08881); test: SelectScreen, TR FRET; settings: compound 5.0 µM
ADRBK2 (human) = ADRBK2 (human) (UniProt P35626); test: SelectScreen, TR FRET; settings: compound 5.0 µM
BLK (human) = BLK (human) (UniProt P51451); test: SelectScreen, TR FRET; settings: compound 5.0 µM
PLK3 (human) = PLK3 (human) (UniProt Q9H4B4); test: SelectScreen, TR FRET; settings: compound 5.0 µM
RET (human) = RET (human) (UniProt P07949); test: SelectScreen, TR FRET; settings: compound 5.0 µM
MAP2K6 (human) = MAP2K6 (human) (UniProt P52564); test: SelectScreen, TR FRET; settings: compound 5.0 µM
MAPK1 (human) = MAPK1 (human) (UniProt P28482); test: SelectScreen, TR FRET; settings: compound 5.0 µM
[5] = test system: ABL1 (human), P00519 [Y253F]; test: SelectScreen, TR FRET; settings: compound 5.0 µM
ROS1 (human) = ROS1 (human) (UniProt P08922); test: SelectScreen, TR FRET; settings: compound 5.0 µM
PRKCG (human) = PRKCG (human) (UniProt P05129); test: SelectScreen, TR FRET; settings: compound 5.0 µM
SGK2 (human) = SGK2 (human) (UniProt Q9HBY8); test: SelectScreen, TR FRET; settings: compound 5.0 µM
PRKCB1 (human) = PRKCB1 (human) (UniProt P05771); test: SelectScreen, TR FRET; settings: compound 5.0 µM
IRAK4 (human) = IRAK4 (human) (UniProt Q9NWZ3); test: SelectScreen, TR FRET; settings: compound 5.0 µM
MAPKAPK3 (human) = MAPKAPK3 (human) (UniProt Q16644); test: SelectScreen, TR FRET; settings: compound 5.0 µM
PTK2 (human) = PTK2 (human) (UniProt Q05397); test: SelectScreen, TR FRET; settings: compound 5.0 µM
MAP4K2 (human) = MAP4K2 (human) (UniProt Q12851); test: SelectScreen, TR FRET; settings: compound 5.0 µM

Sequence of TAOK1 (human) (Q7L7X3 whole entry, looked up): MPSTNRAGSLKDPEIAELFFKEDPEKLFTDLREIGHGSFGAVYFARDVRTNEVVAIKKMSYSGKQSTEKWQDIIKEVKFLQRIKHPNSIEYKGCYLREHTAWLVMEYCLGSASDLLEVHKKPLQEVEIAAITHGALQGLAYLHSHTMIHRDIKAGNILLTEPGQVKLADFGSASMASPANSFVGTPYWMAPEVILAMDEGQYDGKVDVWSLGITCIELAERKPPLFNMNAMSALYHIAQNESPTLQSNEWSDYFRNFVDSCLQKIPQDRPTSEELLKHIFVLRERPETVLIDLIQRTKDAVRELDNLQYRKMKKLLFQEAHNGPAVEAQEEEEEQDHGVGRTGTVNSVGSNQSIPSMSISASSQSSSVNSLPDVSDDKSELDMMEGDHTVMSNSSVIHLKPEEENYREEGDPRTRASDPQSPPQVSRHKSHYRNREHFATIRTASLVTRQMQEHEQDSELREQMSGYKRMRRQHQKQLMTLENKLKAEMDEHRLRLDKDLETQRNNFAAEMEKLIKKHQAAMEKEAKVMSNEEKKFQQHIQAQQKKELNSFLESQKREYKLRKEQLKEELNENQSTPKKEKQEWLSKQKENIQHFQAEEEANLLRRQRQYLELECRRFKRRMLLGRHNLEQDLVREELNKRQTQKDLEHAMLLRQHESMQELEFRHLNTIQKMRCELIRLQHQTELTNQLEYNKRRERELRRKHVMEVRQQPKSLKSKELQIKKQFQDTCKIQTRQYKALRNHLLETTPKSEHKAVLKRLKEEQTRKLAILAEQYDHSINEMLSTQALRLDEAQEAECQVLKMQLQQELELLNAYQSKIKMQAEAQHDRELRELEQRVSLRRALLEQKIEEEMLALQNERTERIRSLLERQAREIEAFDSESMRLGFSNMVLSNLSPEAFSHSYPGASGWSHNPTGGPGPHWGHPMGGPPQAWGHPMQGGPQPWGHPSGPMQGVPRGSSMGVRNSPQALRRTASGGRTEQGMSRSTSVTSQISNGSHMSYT
Sequence of CAMK2B (human) (Q13554 whole entry, looked up): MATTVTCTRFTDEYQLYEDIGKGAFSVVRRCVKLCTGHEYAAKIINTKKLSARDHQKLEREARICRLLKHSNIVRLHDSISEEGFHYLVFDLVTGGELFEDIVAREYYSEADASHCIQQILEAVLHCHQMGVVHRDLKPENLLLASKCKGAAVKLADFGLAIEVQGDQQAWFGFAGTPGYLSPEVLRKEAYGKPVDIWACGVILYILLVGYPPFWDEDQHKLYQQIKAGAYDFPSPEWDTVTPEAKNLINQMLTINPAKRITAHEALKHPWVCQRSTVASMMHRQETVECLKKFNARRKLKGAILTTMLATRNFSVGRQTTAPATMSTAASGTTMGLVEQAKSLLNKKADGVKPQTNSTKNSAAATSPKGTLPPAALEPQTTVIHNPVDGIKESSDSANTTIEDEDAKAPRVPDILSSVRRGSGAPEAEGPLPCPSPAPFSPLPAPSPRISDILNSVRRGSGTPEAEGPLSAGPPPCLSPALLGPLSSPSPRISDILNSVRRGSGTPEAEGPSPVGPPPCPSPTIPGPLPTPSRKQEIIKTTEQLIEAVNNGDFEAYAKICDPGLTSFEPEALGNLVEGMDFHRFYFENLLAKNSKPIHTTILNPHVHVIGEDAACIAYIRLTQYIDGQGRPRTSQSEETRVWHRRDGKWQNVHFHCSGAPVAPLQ
Sequence of FES (human) (P07332 whole entry, looked up): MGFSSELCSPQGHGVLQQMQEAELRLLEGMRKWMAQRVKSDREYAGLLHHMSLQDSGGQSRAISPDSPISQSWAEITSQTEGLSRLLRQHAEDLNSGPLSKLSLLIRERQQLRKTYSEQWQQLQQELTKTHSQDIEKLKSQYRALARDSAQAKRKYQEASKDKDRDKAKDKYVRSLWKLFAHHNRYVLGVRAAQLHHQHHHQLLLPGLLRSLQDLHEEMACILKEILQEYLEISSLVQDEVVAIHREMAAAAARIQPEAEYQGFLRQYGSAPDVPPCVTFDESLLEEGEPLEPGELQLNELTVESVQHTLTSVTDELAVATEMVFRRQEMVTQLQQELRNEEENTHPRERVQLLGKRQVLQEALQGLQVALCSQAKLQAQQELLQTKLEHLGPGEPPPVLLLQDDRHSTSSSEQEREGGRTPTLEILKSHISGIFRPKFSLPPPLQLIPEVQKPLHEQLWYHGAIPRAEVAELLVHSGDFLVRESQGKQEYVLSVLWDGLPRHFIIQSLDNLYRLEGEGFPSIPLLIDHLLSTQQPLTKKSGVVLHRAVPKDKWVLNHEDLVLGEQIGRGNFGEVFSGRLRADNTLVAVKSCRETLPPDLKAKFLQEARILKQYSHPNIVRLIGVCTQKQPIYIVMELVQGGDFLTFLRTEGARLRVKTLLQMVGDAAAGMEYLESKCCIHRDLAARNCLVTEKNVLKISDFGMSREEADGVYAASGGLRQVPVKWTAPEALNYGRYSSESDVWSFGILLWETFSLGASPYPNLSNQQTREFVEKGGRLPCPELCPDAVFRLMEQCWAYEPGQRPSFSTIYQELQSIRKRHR
Sequence of MAP2K6 (human) (P52564 whole entry, looked up): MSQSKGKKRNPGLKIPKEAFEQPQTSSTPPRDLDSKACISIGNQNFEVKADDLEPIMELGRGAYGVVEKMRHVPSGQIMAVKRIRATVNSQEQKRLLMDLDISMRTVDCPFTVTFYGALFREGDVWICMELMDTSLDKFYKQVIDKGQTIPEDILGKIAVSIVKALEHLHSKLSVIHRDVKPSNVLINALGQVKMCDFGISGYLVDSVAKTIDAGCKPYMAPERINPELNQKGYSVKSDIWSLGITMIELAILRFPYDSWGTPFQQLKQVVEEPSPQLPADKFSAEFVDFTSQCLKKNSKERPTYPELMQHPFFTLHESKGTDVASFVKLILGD
Sequence of FER (human) (P16591 whole entry, looked up): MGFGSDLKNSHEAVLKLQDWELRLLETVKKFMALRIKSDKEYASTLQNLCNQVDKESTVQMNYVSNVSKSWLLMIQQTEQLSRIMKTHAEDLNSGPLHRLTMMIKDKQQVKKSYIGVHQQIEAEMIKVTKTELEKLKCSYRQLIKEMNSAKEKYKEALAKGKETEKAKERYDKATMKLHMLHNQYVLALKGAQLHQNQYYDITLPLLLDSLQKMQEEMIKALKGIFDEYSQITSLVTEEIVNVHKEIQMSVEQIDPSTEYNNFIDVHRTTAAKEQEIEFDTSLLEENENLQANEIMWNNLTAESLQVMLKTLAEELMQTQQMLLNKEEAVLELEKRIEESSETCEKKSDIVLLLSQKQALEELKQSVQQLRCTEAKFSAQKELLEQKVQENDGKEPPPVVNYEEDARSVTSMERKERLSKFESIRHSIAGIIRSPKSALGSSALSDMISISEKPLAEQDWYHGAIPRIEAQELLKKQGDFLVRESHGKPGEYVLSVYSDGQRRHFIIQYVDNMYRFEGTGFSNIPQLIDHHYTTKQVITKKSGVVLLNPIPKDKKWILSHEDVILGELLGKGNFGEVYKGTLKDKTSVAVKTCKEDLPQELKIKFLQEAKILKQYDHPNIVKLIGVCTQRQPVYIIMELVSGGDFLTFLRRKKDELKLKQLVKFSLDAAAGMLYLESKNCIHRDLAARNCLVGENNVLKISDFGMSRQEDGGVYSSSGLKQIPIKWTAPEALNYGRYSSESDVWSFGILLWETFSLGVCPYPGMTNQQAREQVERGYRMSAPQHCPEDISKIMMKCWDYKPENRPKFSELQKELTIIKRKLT
Sequence of PTK2 (human) (Q05397 whole entry, looked up): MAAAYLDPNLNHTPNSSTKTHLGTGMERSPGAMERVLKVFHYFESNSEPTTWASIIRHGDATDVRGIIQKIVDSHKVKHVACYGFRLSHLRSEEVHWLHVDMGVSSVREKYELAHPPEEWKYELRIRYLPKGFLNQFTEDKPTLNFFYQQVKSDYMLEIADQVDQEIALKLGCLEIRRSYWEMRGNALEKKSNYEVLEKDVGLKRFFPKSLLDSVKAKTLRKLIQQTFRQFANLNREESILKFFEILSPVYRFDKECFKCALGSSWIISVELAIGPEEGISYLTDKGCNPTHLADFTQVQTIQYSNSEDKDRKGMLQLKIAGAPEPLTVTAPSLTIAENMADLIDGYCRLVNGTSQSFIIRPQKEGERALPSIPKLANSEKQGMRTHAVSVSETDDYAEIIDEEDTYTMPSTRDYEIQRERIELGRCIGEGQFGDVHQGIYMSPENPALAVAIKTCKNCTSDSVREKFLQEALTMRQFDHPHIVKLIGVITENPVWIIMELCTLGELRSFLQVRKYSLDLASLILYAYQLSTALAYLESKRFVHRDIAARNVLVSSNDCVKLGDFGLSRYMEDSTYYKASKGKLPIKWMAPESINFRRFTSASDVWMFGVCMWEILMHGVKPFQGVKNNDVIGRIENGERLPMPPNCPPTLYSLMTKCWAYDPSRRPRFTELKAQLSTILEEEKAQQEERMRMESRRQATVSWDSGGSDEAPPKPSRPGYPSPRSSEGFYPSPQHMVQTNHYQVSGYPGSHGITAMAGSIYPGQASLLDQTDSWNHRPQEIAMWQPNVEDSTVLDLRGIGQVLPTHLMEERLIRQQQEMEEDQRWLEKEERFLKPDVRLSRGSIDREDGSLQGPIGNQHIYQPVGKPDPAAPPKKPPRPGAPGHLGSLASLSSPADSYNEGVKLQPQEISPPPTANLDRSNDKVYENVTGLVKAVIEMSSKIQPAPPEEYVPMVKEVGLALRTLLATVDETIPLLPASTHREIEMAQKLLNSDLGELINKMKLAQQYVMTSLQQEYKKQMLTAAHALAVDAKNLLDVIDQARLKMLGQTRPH
Sequence of MAPK1 (human) (P28482 whole entry, looked up): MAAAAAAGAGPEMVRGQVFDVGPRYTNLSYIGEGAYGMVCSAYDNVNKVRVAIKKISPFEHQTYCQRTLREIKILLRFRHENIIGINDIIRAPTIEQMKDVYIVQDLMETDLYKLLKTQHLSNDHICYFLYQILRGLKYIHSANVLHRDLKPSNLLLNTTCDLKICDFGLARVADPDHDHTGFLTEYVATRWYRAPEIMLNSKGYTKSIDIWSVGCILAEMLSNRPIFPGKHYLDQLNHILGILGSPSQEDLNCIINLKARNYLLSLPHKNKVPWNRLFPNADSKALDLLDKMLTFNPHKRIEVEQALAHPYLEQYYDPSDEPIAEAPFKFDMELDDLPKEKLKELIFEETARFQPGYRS

Nc1cc(C(F)(F)F)c(-c2cc(N3CCOCC3)nc(N3CCOCC3)n2)cn1
inhibition of binding (MAP4K1 (human)): 0% | inhibition of binding (CAMK2B (human)): 18% | inhibition of binding (MAPK9 (human)): 0% | inhibition of binding (CSF1R (human)): 0% | inhibition of binding (CAMK1G (human)): 0% | inhibition of binding (NEK1 (human)): 15% | inhibition of binding (PLK1 (human)): 30% | inhibition of binding (SRPK3 (human)): 0% | inhibition of binding [1]: 0% | inhibition of binding [2]: 0% | inhibition of binding (TAOK1 (human)): 0% and 2% | inhibition of binding [3]: 2% | inhibition (PLK2 (human)): -2% | inhibition (MAPKAPK2 (human)): -4% | inhibition (SRC (human)): 10% | inhibition (RPS6KA2 KD1 KD2 (human)): 4% | inhibition (PRKG2 (human)): 10% | inhibition (FER (human)): 1% | inhibition (RPS6KB1 (human)): 8% | inhibition (TYRO3 (human)): 3% | inhibition [4]: 3% | inhibition (PIM1 (human)): 6% | inhibition (FES (human)): 0% | inhibition (PIM2 (human)): 3% | inhibition (ITK (human)): 3% | inhibition (ADRBK2 (human)): 2% | inhibition (BLK (human)): -3% | inhibition (PLK3 (human)): 1% | inhibition (RET (human)): -4% | inhibition (MAP2K6 (human)): 6% | inhibition (MAPK1 (human)): 6% | inhibition [5]: 1% | inhibition (ROS1 (human)): 27% | inhibition (PRKCG (human)): 5% | inhibition (SGK2 (human)): 10% | inhibition (PRKCB1 (human)): 30% | inhibition (IRAK4 (human)): 12% | inhibition (MAPKAPK3 (human)): 1% | inhibition (PTK2 (human)): 4% | inhibition (MAP4K2 (human)): 6%
